Measurements published in patent publication US7932283B2, “Fungicide N-cyclopropyl-sulfonylamide derivatives” (Bayer Cropscience AG, priority 2006, dated 2011).

Assay: logP by HPLC on reversed-phase column (C 18), EEC Directive 79/B31 Annex V.A8, methods A and B
Type: physicochemical
Conditions: for chromatographic logP: reversed-phase HPLC column (C 18)
Method: Calibration was carried out using unbranched alkan-2-ones (having 3 to 16 carbon atoms) with known logP values (determination of the logP values by the retention times using linear interpolation between two successive alkanones).

[1] = HPLC reversed-phase C 18, method A: 43° C., 0.1% aqueous phosphoric acid, acetonitrile, linear gradient 10% to 90% acetonitrile
[2] = HPLC reversed-phase C 18, method B: 40° C., 0.1% aqueous formic acid and acetonitrile, linear gradient 10% to 90% acetonitrile
[3] = LogP method B: HPLC reversed-phase C 18, 40° C., 0.1% aqueous formic acid / acetonitrile, linear gradient 10% to 90% acetonitrile
[4] = LogP method A: HPLC reversed-phase C 18, 43° C., 0.1% aqueous phosphoric acid / acetonitrile, linear gradient 10% to 90% acetonitrile

Row | Compound | chromatographic logP [2] | chromatographic logP [4] | other results
1 | Cc1nn(C)c(F)c1C(=O)N(C1CC1)S(=O)(=O)c1ccccc1[N+](=O)[O-] [Compound 202] | – | – | chromatographic logP [1]: 2.25
2 | CCCOc1nn(C)cc1C(=O)N(C1CC1)S(=O)(=O)c1ccc(Oc2cccc(O)c2)cc1Br [Compound 296] | 4.5 | – | –
3 | Cn1nc(C(F)(F)F)c(C(=O)N(C2CC2)S(=O)(=O)c2ccccc2I)c1F [Compound 369] | 3 | – | –
4 | CCc1nn(C)c(F)c1C(=O)N(C1CC1)S(=O)(=O)c1c(O)sc(O)c1O [Compound 437] | – | – | chromatographic logP [3]: 3.85
5 | O=C(c1cc(Br)c(Br)s1)N(C1CC1)S(=O)(=O)c1ccccc1O [Compound 15] | – | – | chromatographic logP [1]: 4.07
6 | Cn1nc(C(F)(F)F)c(C(=O)N(C2CC2)S(=O)(=O)c2ccccc2O)c1O [Compound 208] | – | – | chromatographic logP [1]: 3.27
7 | COc1nn(C)c(O)c1C(=O)N(C1CC1)S(=O)(=O)c1ccc(Oc2ccc(Br)cc2)cc1 [Compound 284] | 4.3 | – | –
8 | O=C(c1cccnc1Cl)N(C1CC1)S(=O)(=O)c1ccccc1O [Compound 644] | – | 2.58 | –
9 | Cc1nocc1C(=O)N(C1CC1)S(=O)(=O)c1ccc(Oc2ccc(Br)cc2)cc1 [Compound 602] | – | – | chromatographic logP [3]: 4.2
10 | CCCOc1nn(C)cc1C(=O)N(C1CC1)S(=O)(=O)c1ccc(Oc2ccc(F)c(O)c2)cc1Br [Compound 304] | – | – | LogP [2]: 5.0
11 | Cc1nn(C)c(F)c1C(=O)N(C1CC1)S(=O)(=O)c1ccc([N+](=O)[O-])cc1 [Compound 185] | – | – | chromatographic logP [1]: 2.54
12 | Cc1nn(C)c(F)c1C(=O)N(C1CC1)S(=O)(=O)c1c(F)cccc1F [Compound 217] | – | – | chromatographic logP [1]: 2.25
13 | Cc1nn(C)c(C)c1C(=O)N(C1CC1)S(=O)(=O)c1ccc(O)cc1O [Compound 413] | – | 2.8 | –
14 | Cc1nn(C)c(O)c1S(=O)(=O)N(C(=O)c1c(C(F)(F)F)nn(C)c1F)C1CC1 [Compound 443] | – | – | chromatographic logP [3]: 2.6
15 | O=C(c1cccnc1O)N(C1CC1)S(=O)(=O)c1ccc(Oc2ccccc2)cc1 [Compound 646] | – | – | chromatographic logP [3]: 3.7
16 | COC(=O)c1csc(C)c1S(=O)(=O)N(C(=O)c1c(C)nn(C)c1F)C1CC1 [Compound 434] | – | 2.24 | –
17 | COCCn1c(C)c(C(=O)N(C2CC2)S(=O)(=O)c2ccc(C(C)(C)C)cc2)sc1=O [Compound 621] | – | 2.01 | –
18 | COCCn1c(C)c(C(=O)N(C2CC2)S(=O)(=O)c2cccc(O)c2)sc1=O [Compound 609] | – | 2.01 | –
19 | Cn1nc(C(F)(F)F)c(C(=O)N(C2CC2)S(=O)(=O)c2ccc(Oc3ccccc3)cc2)c1F [Compound 370] | 3.9 | – | –
20 | Cc1c(C(=O)N(C2CC2)S(=O)(=O)c2ccc(O)cc2O)sc(=O)n1Cc1ccccc1 [Compound 627] | – | 4.03 | –
21 | O=C(c1cccnc1)N(C1CC1)S(=O)(=O)c1ccc(O)c(O)c1 [Compound 639] | – | 2.91 | –
22 | Cc1nocc1C(=O)N(C1CC1)S(=O)(=O)c1ccc(O)c(O)c1O [Compound 600] | – | – | chromatographic logP [3]: 3.6
23 | Cc1noc(C)c1C(=O)N(C1CC1)S(=O)(=O)c1ccc(C(F)(F)F)cc1 [Compound 588] | – | 3.46 | –
24 | O=C(c1cccnc1)N(C1CC1)S(=O)(=O)c1ccc(C(F)(F)F)cc1 [Compound 637] | – | 2.74 | –

Row | Compound | chromatographic logP [2] | chromatographic logP [4] | other results
25 | CC(F)c1nn(C)cc1C(=O)N(C1CC1)S(=O)(=O)c1ccc(Oc2ccccc2)cc1 (stereo not shown) [Compound 121] | 3.5 | – | –
26 | Cn1nc(-c2ccccc2)c(C(=O)N(C2CC2)S(=O)(=O)c2cccc(O)c2O)c1F [Compound 101] | 3.7 | – | –
27 | CCOc1nn(C)cc1C(=O)N(C1CC1)S(=O)(=O)C1C=CC(Oc2ccc(F)c(O)c2)=CC1O (stereo not shown) [Compound 536] | – | – | chromatographic logP [3]: 4
28 | O=C(c1cccnc1O)N(C1CC1)S(=O)(=O)c1cccc(O)c1O [Compound 645] | – | – | chromatographic logP [3]: 3.2
29 | CCc1onc(C(C)C)c1C(=O)N(C1CC1)S(=O)(=O)c1ccc(C(C)(C)C)cc1 [Compound 597] | – | 4.98 | –
30 | Cc1c(C(=O)N(C2CC2)S(=O)(=O)c2ccc(O)c(C(F)(F)F)c2)sc(=O)n1Cc1ccccc1 [Compound 625] | – | 3.01 | –
31 | O=C(c1cccnc1F)N(C1CC1)S(=O)(=O)c1cccc(O)c1O [Compound 649] | – | – | chromatographic logP [3]: 2.4
32 | Cc1nn(C)c(Oc2cccc(O)c2)c1C(=O)N(C1CC1)S(=O)(=O)c1cccc(O)c1 [Compound 399] | – | 3.94 | –
33 | COc1ccc(Oc2ccc(S(=O)(=O)N(C(=O)c3cn(C)nc3OC)C3CC3)c(Br)c2)cc1 [Compound 463] | – | – | chromatographic logP [3]: 3.3
34 | Cn1nc(C(=O)N(C2CC2)S(=O)(=O)c2ccccc2O)n(C)c1=O [Compound 608] | – | 1.97 | –
35 | Cn1cc(C(=O)N(C2CC2)S(=O)(=O)c2ccc(Oc3ccccc3)cc2)c(C(F)(F)F)c1 [Compound 38] | 4 | – | –
36 | CCc1nn(C)c(F)c1C(=O)N(C1CC1)S(=O)(=O)c1ccc(Br)cc1O [Compound 385] | 3.4 | – | –
37 | COc1nn(C)cc1C(=O)N(C1CC1)S(=O)(=O)c1csc(O)c1O [Compound 440] | – | – | chromatographic logP [3]: 3.1
38 | Cn1nc(C2CC2)c(C(=O)N(C2CC2)S(=O)(=O)c2ccc(O)c(O)c2O)c1F [Compound 224] | 3.9 | – | –
39 | CCCOc1nn(C)cc1C(=O)N(C1CC1)S(=O)(=O)c1ccc(Oc2ccc(OC)cc2)cc1Br [Compound 289] | 4 | – | –
40 | Cc1c(C(=O)N(C2CC2)S(=O)(=O)c2ccc(O)c(O)c2)sc(=O)n1Cc1ccccc1 [Compound 626] | – | 3.01 | –
41 | Cn1nc(C(F)(F)F)c(C(=O)N(C2CC2)S(=O)(=O)c2c(O)cc(O)cc2O)c1F [Compound 363] | 3.7 | – | –
42 | O=C(C1=C(C(F)(F)F)OCCS1)N(C1CC1)S(=O)(=O)c1ccccc1O [Compound 653] | – | 3.2 | –
43 | CCCOc1nn(C)cc1C(=O)N(C1CC1)S(=O)(=O)c1ccc(Oc2ccc(Cl)c(Cl)c2)cc1Br [Compound 303] | 4.9 | – | –
44 | Cc1n[nH]c(C)c1C(=O)N(C1CC1)S(=O)(=O)c1ccc(C(C)(C)C)cc1 [Compound 410] | – | 3.04 | –
45 | COc1nn(C)cc1C(=O)N(C1CC1)S(=O)(=O)c1ccc(Oc2cccc(C(F)(F)F)c2F)cc1Br [Compound 471] | – | – | chromatographic logP [3]: 3.8
46 | Cc1cc(C(=O)N(C2CC2)S(=O)(=O)c2ccc(O)c(O)c2O)nn1C [Compound 75] | 3.3 | – | –
47 | Cn1nc(C(F)(F)F)c(C(=O)N(C2CC2)S(=O)(=O)c2cc(O)c(O)cc2O)c1F [Compound 361] | 4 | – | –
48 | COc1nn(C)cc1C(=O)N(C1CC1)S(=O)(=O)c1ccc(Oc2ccc(Cl)c(C(F)(F)F)c2)cc1Br [Compound 479] | – | – | chromatographic logP [3]: 4.2

Row | Compound | chromatographic logP [2] | chromatographic logP [4] | other results
49 | CCOC(=O)c1[nH]c(C)c(C(=O)N(C2CC2)S(=O)(=O)c2ccc(C(F)(F)F)cc2)c1C [Compound 30] | – | – | chromatographic logP [1]: 3.72
50 | CCCOc1nn(C)cc1C(=O)N(C1CC1)S(=O)(=O)c1ccc(Oc2ccc(C(F)(F)F)cc2)cc1Br [Compound 298] | 4.6 | – | –
51 | CCc1nn(C)c(F)c1C(=O)N(C1CC1)S(=O)(=O)c1cc(C(F)(F)F)ccc1O [Compound 384] | 3.5 | – | –
52 | Cc1nn(C)c(F)c1C(=O)N(C1CC1)S(=O)(=O)c1ccc(O)cc1 [Compound 190] | – | – | chromatographic logP [1]: 2.83
53 | CCc1c(C(=O)N(C2CC2)S(=O)(=O)c2ccc(Cl)c(C(F)(F)F)c2)sc(=O)n1C1CC1 [Compound 629] | – | 3.01 | –
54 | CC(C)c1nn(C)c(F)c1C(=O)N(C1CC1)S(=O)(=O)c1ccc(O)cc1O [Compound 96] | 3.8 | – | –
55 | Cc1cnn(C)c1C(=O)N(C1CC1)S(=O)(=O)c1ccc(Oc2ccc(Br)cc2)cc1 [Compound 661] | – | – | chromatographic logP [3]: 4.2
56 | Cc1c(C(=O)N(C2CC2)S(=O)(=O)c2cccc(Cl)c2)sc(=O)n1C [Compound 611] | – | 1.01 | –
57 | Cc1noc(C)c1C(=O)N(C1CC1)S(=O)(=O)c1ccc(O)c(O)c1 [Compound 591] | – | 3.72 | –
58 | CCCOc1nn(C)cc1C(=O)N(C1CC1)S(=O)(=O)c1ccc(Oc2ccc(F)c(O)c2)cc1Br [Compound 294] | 4.5 | – | –
59 | CC(C)c1c(C(=O)N(C2CC2)S(=O)(=O)c2ccc(O)c(C(F)(F)F)c2)sc(=O)n1C1CC1 [Compound 633] | – | 3.01 | –
60 | CCOC(=O)c1[nH]c(C)c(C(=O)N(C2CC2)S(=O)(=O)c2ccc(O)cc2O)c1C [Compound 32] | – | – | chromatographic logP [1]: 3.63
61 | Cn1cc(C(=O)N(C2CC2)S(=O)(=O)c2cccc(O)c2O)c(C(F)(F)F)c1 [Compound 36] | 3.3 | – | –
62 | CC(F)c1nn(C)cc1C(=O)N(C1CC1)S(=O)(=O)c1ccc(O)c(O)c1O (stereo not shown) [Compound 120] | 3.4 | – | –
63 | COc1nn(C)cc1C(=O)N(C1CC1)S(=O)(=O)c1cnn(C)c1O [Compound 444] | – | – | chromatographic logP [3]: 1.7
64 | CCc1onc(C(C)C)c1C(=O)N(C1CC1)S(=O)(=O)c1ccc(O)c(C(F)(F)F)c1 [Compound 594] | – | 4.82 | –
65 | COc1nn(C)cc1C(=O)N(C1CC1)S(=O)(=O)c1ccc(Oc2ccc(C)nc2)cc1Br [Compound 458] | – | – | chromatographic logP [3]: 2
66 | COC(=O)C1(N(C(=O)c2c(C(F)(F)F)nn(C)c2F)S(=O)(=O)c2ccc(O)c(O)c2O)CC1 [Compound 667] | – | – | chromatographic logP (Method B: 40° C., 0.1% aqueous formic acid and acetonitrile): 4.04
67 | Cn1nc(C(F)(F)F)c(C(=O)N(C2CC2)S(=O)(=O)c2ccc(F)cc2O)c1F [Compound 362] | 3.1 | – | –
68 | Cn1nc(C(F)(F)F)c(C(=O)N(C2CC2)S(=O)(=O)c2ccc(O)c(O)c2O)c1F [Compound 108] | 4.1 | – | –
69 | Cc1nn(C)c(Oc2cccc(O)c2)c1C(=O)N(C1CC1)S(=O)(=O)c1ccc(O)c(O)c1 [Compound 405] | – | 4.46 | –
70 | Cc1n[nH]c(C)c1C(=O)N(C1CC1)S(=O)(=O)c1ccc(O)c(O)c1 [Compound 409] | – | 2.74 | –
